Assay: Water solubility
Format: physicochemical

CCCCOc1ccc(OCCCC)c2c1-c1nc3nc(nc4[nH]c([nH]c5nc(nc-2n1)-c1c(OCCCC)ccc(OCCCC)c1-5)c1c(OCCCC)ccc(OCCCC)c41)-c1c(OCCCC)ccc(OCCCC)c1-3 [762Pc, 1,4,8,11,15,18,22,25-Octabutoxy-29H,31H-phthalocyanine]
water solubility: negligible

From patent US12486245B2, “Sequential multi-step flash nanoprecipitation for the formation of nanoparticles with high core loadings” (The Trustees of Princeton University, priority 2019, dated 2025)
